From patent publication US20250340603A1, “A METHOD FOR MODULATING PLANT ADAPTATION TRAITS” (CRAG (Centre de Recerca en Agrigenòmica), priority 2021, published 2025)

T1: BRL3 (BRASSINOSTEROID RECEPTOR LIKE 3), full length, fused to a half of YFP (BiFC construct) (Arabidopsis thaliana, UniProt Q9LJF3 24-1164)
T1 construct: also called BRL3 receptor; AT3G13380; not shown: half of YFP (YN or YC, both directions tested) from vectors pGTQL1211-YN / pGTQL1221-YC
T1 sequence: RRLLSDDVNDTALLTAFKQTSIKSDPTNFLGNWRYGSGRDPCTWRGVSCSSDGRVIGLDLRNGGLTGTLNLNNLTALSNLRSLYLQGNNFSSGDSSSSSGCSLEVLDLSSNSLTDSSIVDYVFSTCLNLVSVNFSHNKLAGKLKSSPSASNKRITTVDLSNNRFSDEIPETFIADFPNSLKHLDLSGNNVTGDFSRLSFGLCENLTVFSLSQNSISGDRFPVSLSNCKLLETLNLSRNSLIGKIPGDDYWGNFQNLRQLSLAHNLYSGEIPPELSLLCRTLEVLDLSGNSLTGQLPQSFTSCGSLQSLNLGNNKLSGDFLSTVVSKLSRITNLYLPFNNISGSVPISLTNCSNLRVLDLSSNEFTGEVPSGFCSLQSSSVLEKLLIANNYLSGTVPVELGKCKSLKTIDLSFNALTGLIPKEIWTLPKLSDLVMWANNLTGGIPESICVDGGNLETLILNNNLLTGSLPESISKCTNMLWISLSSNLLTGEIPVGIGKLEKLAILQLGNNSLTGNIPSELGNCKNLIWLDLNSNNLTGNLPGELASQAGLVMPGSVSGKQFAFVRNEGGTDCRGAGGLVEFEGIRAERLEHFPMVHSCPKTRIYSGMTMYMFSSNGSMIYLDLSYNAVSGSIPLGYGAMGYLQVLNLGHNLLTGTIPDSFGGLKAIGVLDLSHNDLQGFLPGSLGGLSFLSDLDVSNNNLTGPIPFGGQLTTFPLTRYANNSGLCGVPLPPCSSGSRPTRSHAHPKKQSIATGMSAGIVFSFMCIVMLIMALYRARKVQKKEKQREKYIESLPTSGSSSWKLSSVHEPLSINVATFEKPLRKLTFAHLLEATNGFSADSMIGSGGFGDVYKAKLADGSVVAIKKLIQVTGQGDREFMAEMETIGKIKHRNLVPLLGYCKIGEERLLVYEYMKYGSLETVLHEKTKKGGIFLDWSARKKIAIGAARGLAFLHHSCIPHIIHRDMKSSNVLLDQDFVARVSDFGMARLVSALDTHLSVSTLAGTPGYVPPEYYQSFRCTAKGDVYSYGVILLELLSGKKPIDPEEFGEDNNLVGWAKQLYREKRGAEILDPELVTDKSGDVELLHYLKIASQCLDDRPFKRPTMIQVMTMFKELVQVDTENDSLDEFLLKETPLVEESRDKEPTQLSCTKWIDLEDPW


What was measured:
[1] = tested on: WT (Col-0) seedlings; assay: BRZ220 treatment, hypocotyl elongation growth; assay type: in vivo, Arabidopsis thaliana; conditions: 1 μM BRZ220 in media, WT plants, 22° C. or 28° C., 6 d, LD
Method: Pharmacological treatments were performed in plates adding hormones/drugs in the media. Chemicals used include; 1 μM BRZ220 (Gift from T. Nakano, RIKEN, Japan) or 50 μM Bikinin (200980, Sigma-Aldrich) for 6-d in control (long days, 22° C.) or high temperature (long days, 28° C.) conditions. Hypocotyl length were measured using the Image J software (v.1.48v) (https-/imagej.nih.gov/ij/). For hypocotyl elongation analysis, seedlings were grown in horizontally placed 0.5MS− media plates in controlled growth conditions (Aralab 600; long days 16:8h day/night cycle 60% relative humidity and 50-70 μmol m^−2 s^−1 of cool-white fluorescent light) at 22° C. or 28° C. temperature for 5-7d. Plates were photographed and hypocotyl length were measured using the ImageJ software (v.1.48v) (https:/imagej.nih.gov/ij/). For root growth analysis, seedlings were grown in vertically placed 0.5MS− media plates in controlled growth conditions (Aralab 600; long days 16:8h day/night cycle; 22° C.). MyROOT software (Betegón-Putzé et al., 2019) was used to compare root growth of plants. Lateral roots were manually counted under a stereozoom microscope in 9-d-old seedlings.

[2] = target: T1, BRL3 (BRASSINOSTEROID RECEPTOR LIKE 3), …; assay: BiFC (split YFP) in Nicotiana benthamiana leaves, confocal microscopy

binding result [2]	Molecule	hypocotyl size [1]
	CC(O)(c1ccccc1)C(Cc1ccc(Cl)cc1)n1cncn1 (centres unmarked) [BRZ220, Brassinazole]	reduced hypocotyl size irrespective of the temperature
no binding	BKI1, BiFC negative control (other, UniProt Q9FMZ0 1-337, looked up, whole, on cells; not shown: the construct of this control is not described) METNLQQVKNSSQTFSEKQNPKQEASPSPISSTCSSPSHDFSFTISLQPLSSSSKHISPTLRSPSKTTSSYQQTDPFAVDLSPADEIFFHGHLLPLHLLSHLPVSPRTSTGSYNDGFTLPVKDILPDQPTNNNNNTENAITNISTEAKDDNTEDKAEGEIRVKTKPIKSFSLFGLSKWRKGFESNEREQEQQQQKIKKPMSLDLSHAVKKYIRMLFQKRGNGTQFWNRRQTSSYSFSSSLMGPNGNSKTMINGSYNKRDLIRGRRGELFSAPASMRTSPTNSGHLRVSTAGLSSSSGSTSSSSSDSTMEELQAAIQAAIAHCKNSSAVDRDDKVKDS	
